Target: T1, NEDD8-activating enzyme E1 catalytic subunit (Homo sapiens, UniProt Q8TBC4)
T1 sequence (Q8TBC4 whole entry): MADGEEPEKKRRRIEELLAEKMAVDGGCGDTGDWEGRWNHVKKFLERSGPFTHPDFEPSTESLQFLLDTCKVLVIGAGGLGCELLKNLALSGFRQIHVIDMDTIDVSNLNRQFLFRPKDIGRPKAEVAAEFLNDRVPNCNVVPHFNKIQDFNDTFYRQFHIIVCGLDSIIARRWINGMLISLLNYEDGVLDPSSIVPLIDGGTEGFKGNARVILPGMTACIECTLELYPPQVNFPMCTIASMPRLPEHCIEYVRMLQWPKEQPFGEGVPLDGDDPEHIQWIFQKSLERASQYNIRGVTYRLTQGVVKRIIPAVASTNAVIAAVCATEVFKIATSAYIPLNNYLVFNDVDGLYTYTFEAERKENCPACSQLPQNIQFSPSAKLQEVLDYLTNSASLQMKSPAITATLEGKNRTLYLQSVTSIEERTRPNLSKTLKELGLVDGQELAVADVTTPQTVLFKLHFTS
Test: Inhibition of recombinant human untagged NAEalpha/N-terminal His-tagged NAEbeta expressed in Bac-to-Bac expression system using FLAG-tagged NEDD8 as substrate after 90 mins in presence of GST-tagged Ubc12 by HTRF assay

SMILES	IC50 [µM]
NS(=O)(=O)OC[C@H]1O[C@@H](n2cnc3c(N[C@H]4CCc5ccccc54)ncnc32)[C@H](O)[C@@H]1O	0.1 to 1
COCCNc1ncnc2c1ncn2[C@@H]1O[C@H](COS(N)(=O)=O)[C@@H](O)[C@H]1O	0.1 to 1
NS(=O)(=O)OC[C@H]1O[C@@H](n2cnc3c(NCc4cccs4)ncnc32)[C@H](O)[C@@H]1O	0.1 to 1
NS(=O)(=O)OC[C@H]1O[C@@H](n2cnc3c(NCCc4ccccc4)ncnc32)[C@H](O)[C@@H]1O	0.1 to 1
NS(=O)(=O)NC[C@H]1O[C@@H](n2cnc3c(NCCOc4ccccc4)ncnc32)[C@H](O)[C@@H]1O	≤ 1
NS(=O)(=O)OC[C@H]1O[C@@H](n2cnc3c(NCc4ccc(OC(F)(F)F)cc4)ncnc32)[C@H](O)[C@@H]1O	0.1 to 1
COc1cccc(CNc2ncnc3c2ncn3[C@@H]2O[C@H](CNS(N)(=O)=O)[C@@H](O)[C@H]2O)c1	0.1 to 1
NS(=O)(=O)OC[C@H]1O[C@@H](n2cnc3c(N[C@@H]4c5ccccc5C[C@@H]4O)ncnc32)[C@H](O)[C@@H]1O	0.1 to 1
NS(=O)(=O)OC[C@H]1O[C@@H](n2ccc3c(N[C@H]4CCc5ccccc54)ncnc32)[C@H](O)[C@@H]1O	0.1 to 1
NS(=O)(=O)OC[C@H]1O[C@@H](n2cnc3c(NCc4ccc(Cl)cc4)ncnc32)[C@H](O)[C@@H]1O	0.1 to 1
NS(=O)(=O)NC[C@H]1O[C@@H](n2cnc3c(N[C@@H](CO)c4ccccc4)ncnc32)[C@H](O)[C@@H]1O	0.1 to 1
Cc1cnc(CNc2ncnc3c2ncn3[C@@H]2O[C@H](COS(N)(=O)=O)[C@@H](O)[C@H]2O)cn1	0.1 to 1
NS(=O)(=O)NC[C@H]1O[C@@H](n2cnc3c(NCc4ccccc4)ncnc32)[C@H](O)[C@@H]1O	0.1 to 1
NS(=O)(=O)OC[C@H]1O[C@@H](n2cnc3c(NCCN4CCOCC4)ncnc32)[C@H](O)[C@@H]1O	0.1 to 1
NS(=O)(=O)NC[C@H]1O[C@@H](n2cnc3c(N[C@@H]4c5ccccc5C[C@@H]4O)ncnc32)[C@H](O)[C@@H]1O	0.1 to 1
NS(=O)(=O)OC[C@H]1O[C@@H](n2cnc3c(NCC4CCNCC4)ncnc32)[C@H](O)[C@@H]1O	0.1 to 1
NS(=O)(=O)OC[C@H]1O[C@@H](n2cnc3c(Cc4ccc(F)cc4)ncnc32)[C@H](O)[C@@H]1O	≤ 1
NS(=O)(=O)OC[C@H]1O[C@@H](n2cnc3c(Nc4ccc(Cl)cc4)ncnc32)[C@H](O)[C@@H]1O	0.1 to 1
NS(=O)(=O)NC[C@H]1O[C@@H](n2cnc3c(NCc4ccc5c(c4)OCO5)ncnc32)[C@H](O)[C@@H]1O	0.1 to 1
NS(=O)(=O)OC[C@H]1O[C@@H](n2cnc3c(NCC4CCCCC4)ncnc32)[C@H](O)[C@@H]1O	0.1 to 1
NS(=O)(=O)OC[C@H]1O[C@@H](n2cnc3c(NC(=O)c4ccc(F)cc4)ncnc32)[C@H](O)[C@@H]1O	0.1 to 1
NS(=O)(=O)NC[C@H]1O[C@@H](n2cnc3c(N[C@H]4CCc5ccccc54)ncnc32)[C@H](O)[C@@H]1O	0.1 to 1

SMILES	IC50 [µM]
Cc1cnc(CNc2ncnc3c2ncn3[C@@H]2O[C@H](CNS(N)(=O)=O)[C@@H](O)[C@H]2O)cn1	≤ 1
NS(=O)(=O)NC[C@H]1O[C@@H](n2cnc3c(NCc4csc5ccccc45)ncnc32)[C@H](O)[C@@H]1O	≤ 1
COCCNc1ncnc2c1ncn2[C@@H]1O[C@H](CNS(N)(=O)=O)[C@@H](O)[C@H]1O	≤ 1
NS(=O)(=O)OC[C@H]1O[C@@H](n2cnc3c(NC(=O)c4ccccc4)ncnc32)[C@H](O)[C@@H]1O	0.1 to 1
COc1cccc(CNc2ncnc3c2ncn3[C@@H]2O[C@H](COS(N)(=O)=O)[C@@H](O)[C@H]2O)c1	0.1 to 1
NS(=O)(=O)OC[C@H]1O[C@@H](n2cnc3c(N[C@H]4CCc5ccccc54)nc(Cl)nc32)[C@H](O)[C@@H]1O	0.1 to 1
NS(=O)(=O)NC[C@H]1O[C@@H](n2cnc3c(N[C@@H]4CCc5ccccc54)ncnc32)[C@H](O)[C@@H]1O	0.1 to 1
NS(=O)(=O)OC[C@H]1O[C@@H](n2cnc3c(NCc4cccc5ccccc45)ncnc32)[C@H](O)[C@@H]1O	0.1 to 1
COc1ccccc1CNc1ncnc2c1ncn2[C@@H]1O[C@H](COS(N)(=O)=O)[C@@H](O)[C@H]1O	0.1 to 1
NS(=O)(=O)CC[C@H]1O[C@@H](n2cnc3c(N[C@@H]4c5ccccc5C[C@@H]4O)ncnc32)[C@H](O)[C@@H]1O	0.1 to 1
NS(=O)(=O)OC[C@H]1O[C@@H](n2cnc3c(NCCN4CCN(Cc5ccccc5)CC4)ncnc32)[C@H](O)[C@@H]1O	0.1 to 1
NS(=O)(=O)CC[C@H]1O[C@@H](n2cnc3c(N[C@H]4CCc5ccccc54)ncnc32)[C@H](O)[C@@H]1O	0.1 to 1
NS(=O)(=O)OC[C@H]1C[C@@H](n2cnc3c(N[C@H]4CCc5ccccc54)ncnc32)[C@H](O)[C@@H]1O	0.1 to 1
NS(=O)(=O)OC[C@H]1O[C@@H](n2cnc3c(N[C@H](CO)c4ccccc4)ncnc32)[C@H](O)[C@@H]1O	0.1 to 1
NS(=O)(=O)OC[C@H]1O[C@@H](n2cnc3c(N[C@@H](CO)c4ccccc4)ncnc32)[C@H](O)[C@@H]1O	0.1 to 1
NS(=O)(=O)OC[C@H]1O[C@@H](n2cnc3c(C#Cc4ccccc4)ncnc32)[C@H](O)[C@@H]1O	0.1 to 1
NS(=O)(=O)OC[C@H]1O[C@@H](n2cnc3c(NCc4ccccc4)ncnc32)[C@H](O)[C@@H]1O	0.1 to 1
NS(=O)(=O)NC[C@H]1O[C@@H](n2cnc3c(NCc4cccs4)ncnc32)[C@H](O)[C@@H]1O	0.1 to 1
NS(=O)(=O)NC[C@H]1O[C@@H](n2cnc3c(NCC(c4ccccc4)c4ccccc4)ncnc32)[C@H](O)[C@@H]1O	0.1 to 1
NS(=O)(=O)NC[C@H]1O[C@@H](n2cnc3c(NCc4cccc5ccccc45)ncnc32)[C@H](O)[C@@H]1O	0.1 to 1
Nc1nc(N[C@H]2CCc3ccccc32)c2ncn([C@@H]3O[C@H](COS(N)(=O)=O)[C@@H](O)[C@H]3O)c2n1	0.1 to 1
NS(=O)(=O)OC[C@H]1O[C@@H](n2cnc3c(CCc4ccccc4)ncnc32)[C@@H](F)[C@@H]1O (relative stereo)	0.1 to 1

From ChEMBL document CHEMBL3880402, “Inhibitors of E1 activating enzymes” (2006)
